How the values were obtained:
recombinant LT (PA + LF) = recombinant LT (PA + LF) (Bacillus anthracis, UniProt P13423); design: species or system BALB/cJ mice; details: mouse, in vivo
lethal toxin (PA + LF) = lethal toxin (PA + LF) (Bacillus anthracis, UniProt P13423)
PA [1] = type: biochemical, B. anthracis
[2] = test system: PA uptake by J774 macrophages, ANTXR2-expressing (CCHO) and ANTXR2-null (PR230) chinese hamster ovary cells; type: cell-based, chinese hamster (CHO cells)
PA [3] = target: PA (Bacillus anthracis, UniProt P13423); type: binding, B. anthracis
[4] = test system: J774 macrophages and PR230 cells; type: cell-based, chinese hamster (PR230 cells)

Chain of lethal toxin (PA + LF) (P13423 30-764 limits assumed): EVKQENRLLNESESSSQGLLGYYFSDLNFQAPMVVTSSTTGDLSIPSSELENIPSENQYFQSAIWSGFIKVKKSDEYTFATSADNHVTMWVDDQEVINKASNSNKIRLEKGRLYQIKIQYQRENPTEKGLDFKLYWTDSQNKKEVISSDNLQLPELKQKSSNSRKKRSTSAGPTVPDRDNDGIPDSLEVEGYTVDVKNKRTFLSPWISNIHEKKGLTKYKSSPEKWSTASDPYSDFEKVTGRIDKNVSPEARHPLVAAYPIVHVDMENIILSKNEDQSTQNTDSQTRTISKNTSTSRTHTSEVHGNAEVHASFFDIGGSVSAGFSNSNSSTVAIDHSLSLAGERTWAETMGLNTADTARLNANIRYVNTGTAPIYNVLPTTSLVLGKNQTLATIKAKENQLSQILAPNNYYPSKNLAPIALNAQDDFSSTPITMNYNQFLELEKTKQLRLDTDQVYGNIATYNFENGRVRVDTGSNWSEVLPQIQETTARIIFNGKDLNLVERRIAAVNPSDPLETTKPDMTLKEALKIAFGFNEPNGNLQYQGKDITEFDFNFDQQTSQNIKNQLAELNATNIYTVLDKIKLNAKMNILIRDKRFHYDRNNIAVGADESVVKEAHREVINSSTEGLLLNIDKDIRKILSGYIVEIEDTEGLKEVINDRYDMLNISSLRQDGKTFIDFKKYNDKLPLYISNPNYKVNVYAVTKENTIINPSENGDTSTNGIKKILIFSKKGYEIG
Chain of recombinant LT (PA + LF) (P13423 30-764 limits assumed): as above
Chain of PA (Bacillus anthracis, UniProt P13423) (P13423 30-764 limits assumed): as above

Compound	protection of mice from LT (recombinant LT (PA + LF))	effect on PA-binding to ANTXR2 or LF, PA oligomerization, or channel formation in vitro (PA [1])	LT inhibitory activity of metal ion chelates (lethal toxin (PA + LF))	inhibit LT-mediated cytolysis in bone marrow macrophage cells (lethal toxin (PA + LF))	inhibition of PA oligomers (lethal toxin (PA + LF))	effect on cell uptake of PA [2]	form complexes with PA (PA [3])	further results
N[C@@H](CCC(=O)O)C(=O)O [L-Glu, reference compound]	did not protect mice from LT							
Fe(III) [reference compound]								concentration at which Fe(III) alone may inhibit LT (lethal toxin (PA + LF)): 10 mM; inhibitory Fe(III) concentration relative to concentrations effective in the Fe(III) co-complexes of compounds 1, 2, and 3 (lethal toxin (PA + LF)): 10^3-10^4 fold; inhibitory activity of Fe(III) alone (lethal toxin (PA + LF)): did not possess inhibitory activity
bovine serum albumin [reference compound]	did not protect mice from LT							
γ-DLPGA [Compound 1]	completely protected	do not affect	only the Fe(III) chelate had LT inhibitory activity	could inhibit	equally inhibited	prevent proper cell uptake	can form complexes with PA	affinity for PA, higher than compound 2 (PA [3]): 10 fold
γ-DPGA [Compound 2]	completely protected	do not affect	only the Fe(III) chelate had LT inhibitory activity	could inhibit	equally inhibited	prevent proper cell uptake	can form complexes with PA	inhibitory activity after treatment with Cap D (recombinant LT (PA + LF)): abolished the inhibitory activity; binding to J774 macrophages and PR230 cells [4]: equal affinity; binding to Pronase-treated PR230 cells [4]: significantly reduced; stimulation of PA internalization after pretreatment with Cap D [2]: eliminates the stimulation of PA internalization; formation of co-complexes with PA after pretreatment with Cap D (PA [3]): prevents formation of co-complexes with PA
